Test results taken from patent US20200138840A1, “PHARMACEUTICAL COMPOSITION AND TUMOR IMMUNOACTIVITY PROMOTER” (SENTAN Pharma inc., priority 2017, published 2020).

Columns and labels:
[1] = Side effects in Example 1: body weight, meals, blood glucose, serological profiles, liver weight; format: in vivo, nude mice (BALBc-nu/nu); details: for ALT / Fasting blood glucose / Neutral fat / Total cholesterol / Liver weight: day 21
Method: Six-week-old nude mice (male, BALBc-nu/nu mice) were subcutaneously transplanted with 1×10^7 Huh-7 cells. In order to confirm the survival and growth of the transplanted cells, the measurement of tumor size was carried out using a pair of vernier calipers. At the time point when the tumors in the mice had reached a volume of from 100 to 150 mm^3, the mice were divided into the following six groups.
In each of the groups, the tumor volume and the body weight of the mice were measured every 3 days from the start of administration. At the time points of 7 days, 14 days and 21 days after the start of administration, the average amount of meals taken per day was calculated from the amount of meals taken in the previous week. […] Further, 21 days after the start of administration, the tumors were observed, blood was collected from the mice in accordance with a conventional method, and the livers were removed from the mice. The serological profiles of the collected blood samples were measured using SPOTCHEM (trademark) EZ SP-4430 system (manufactured by Arkray, Inc.). In addition, the weight of the removed livers was measured.

Hepatoma cell line Huh-7 = experiment: Anticancer effect of 2DG in nude mice subcutaneously transplanted with hepatoma cell line (Example 1); format: in vivo, nude mice (BALBc-nu/nu); details: for tumor volume over time (FIG. 2): combination with sorafenib 5 mg/kg/day orally
Method: The Hepatoma cell line Huh-7 (obtained from Cell Resource Center for Biomedical Research, Cell Bank, Institute of Development, Aging and Cancer, National University Corporation Tohoku University) to be transplanted to the mice was cultured at 37° C. using a 5% CO2 incubator. Dulbecco's modified Eagle's medium (DMEM) containing 10% fetal bovine serum was used as the medium for culturing Huh-7 cells. Six-week-old nude mice (male, BALBc-nu/nu mice) were subcutaneously transplanted with 1×10^7 Huh-7 cells. In order to confirm the survival and growth of the transplanted cells, the measurement of tumor size was carried out using a pair of vernier calipers. […] (a) Control group: 200 μL of PBS was administered intraperitoneally every day. […] At the time points of 7 days, 14 days and 21 days after the start of administration, the average amount of meals taken per day was calculated from the amount of meals taken in the previous week. […] Further, 21 days after the start of administration, the tumors were observed, blood was collected from the mice in accordance with a conventional method, and the livers were removed from the mice. The serological profiles of the collected blood samples were measured using SPOTCHEM (trademark) EZ SP-4430 system (manufactured by Arkray, Inc.). In addition, the weight of the removed livers was measured.

[2] = Side effects in Example 3: body weight, meals, blood glucose, serological profiles, liver weight; format: in vivo, nude mice; details: day 21
Method: Nude mice subcutaneously transplanted with Huh-7 cells, prepared in the same manner as in Example 1, were divided in the following six groups.
In each of the groups, the tumor volume and the body weight of the mice were measured in the same manner as in Example 1, and the average amount of meals taken per day was calculated.

CD3 positive T cells = experiment: Immunostaining of liver tumor tissue with CD3 antibody (Example 10); format: in vivo, STAM mice (C57BL6/N); details: 2DG 100 mg/kg/day i.p. every day; high dose 2DG-PLGA 200 μL of 100 mg/mL once a week
Method: Further, the immunostaining of the liver tumor tissue was carried out using a rabbit monoclonal CD3 antibody (manufactured by GeneTex, Inc.).

[3] = cited from earlier work
[4] = high dose 2DG 1,000 mg/kg/day i.p. (alone or with sorafenib 5 mg/kg/day orally)
[5] = low dose 2DG 100 mg/kg/day i.p. (alone or with sorafenib 5 mg/kg/day orally)
[6] = high dose 2DG 1,000 mg/kg/day i.p., day 14 after start
[7] = 2DG 100 mg/kg/day into jugular vein once a week
[8] = 2DG 100 mg/kg/day intraperitoneally every day

## CNC(=O)c1cc(Oc2ccc(NC(=O)Nc3ccc(Cl)c(C(F)(F)F)c3)cc2)ccn1 [Sorafenib, sorafenib]
[1]; sorafenib 5 mg/kg/day orally
  ALT: 35.0 ± 10.3 mg/dL
  Fasting blood glucose: 84.8 ± 11.8 mg/dL
  Neutral fat: 95.2 ± 35.7 mg/dL
  Total cholesterol: 120.4 ± 17.8 mg/dL

## O=CC[C@@H](O)[C@H](O)[C@H](O)CO [2DG, 2-Deoxy-D-glucose]
Hepatoma cell line Huh-7; 21 days after start, 2DG i.p. every day, sorafenib 5 mg/kg/day orally
  size of the tumors (appearance, FIG. 1): decreased the size of the tumors
Hepatoma cell line Huh-7; high dose 2DG 1,000 mg/kg/day i.p. every day
  tumor volume over time (FIG. 2): significant decrease in the tumor volume in a dose-dependent manner
Hepatoma cell line Huh-7; low dose 2DG 100 mg/kg/day i.p. every day
  tumor volume over time (FIG. 2): significant decrease in the tumor volume in a dose-dependent manner
[1]; [4]
  Fasting blood glucose: 77.2 ± 28.0 mg/dL
  Liver weight: 1.10 ± 0.1 g
  Total cholesterol: 110.8 ± 23.6 mg/dL
[1]; [5]
  ALT: 34.8 ± 16.2 mg/dL
  Fasting blood glucose: 79.0 ± 10.9 mg/dL
  Liver weight: 1.21 ± 0.1 g
  Neutral fat: 103.2 ± 24.7 mg/dL
  Total cholesterol: 122.6 ± 19.8 mg/dL
[1]; [6]
  blood glucose level after administration (FIG. 5): marked increase in the blood glucose level
  consciousness after administration: disturbance of consciousness was observed
[2]; [7]
  ALT: 49 ± 20.9 U/L
  Fasting blood glucose: 73.8 ± 14.0 mg/dL
  Liver weight: 1.10 ± 0.19 g
  Neutral fat: 67.6 ± 28.5 mg/dL
  Total cholesterol: 115.4 ± 10.1 mg/dL
[2]; [8]
  ALT: 38.6 ± 23.5 U/L
  Fasting blood glucose: 83.2 ± 38.2 mg/dL
  Liver weight: 1.35 ± 0.19 g
  Total cholesterol: 113.8 ± 25.3 mg/dL
CD3 positive T cells
  infiltration of T cells into the interior of tumors (FIG. 29): increased infiltration of T cells
[3]; dose of from 63 to 88 mg/kg
  side-effects: severe side-effects such as gastrointestinal bleeding, long QT syndrome and hyperglycemia were observed
[3]; phase 1 clinical trial, oral administration, combined with docetaxel
  tolerated dose: ≤ 63 mg/kg
